In patent publication US8058306B2, “Phenyl pyrrole aminoguanidine derivatives” (Action Pharma A/S, priority 2006, dated 2011):
Where “and” joins values, the source holds several entries; their conditions need not be identical. Identical values can stand only once. Entries after “also recorded” stand apart in the source; their conditions may differ. Like-named read-outs stand apart in the source and are kept apart here.

Assay: Plasma kinetics in rat following intravenous and oral administration;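 on AUC0-∞: parameter is AUC from zero to infinity in ng·h/mL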
Format: in vivo, Sprague Dawley rats
Settings: for t1/2: Table XIV; for concentration at 0.05 h / concentration at 0.1 h / concentration at 0.25 h / concentration at 0.75 h / concentration at 1.5 h / concentration at 2.5 h / concentration at 4 h / concentration at 6 h / concentration at 8 h / concentration at 24 h: single intravenous 10 mg/kg
Protocol: This study determined the intravenous pharmacokinetics and oral bioavailability of compound 1 of the invention (see FIG. 1A, structure no. 1), compound 2 of the invention (see FIG. 1D, structure no. 19) and compound 3 of the invention (see FIG. 1I, structure no. 53) following administration to Sprague Dawley rats at a dose level of 10 mg/kg.
Six groups of 3 male rats received either a single intravenous or single oral administration of compound 1, 2 or 3 of the invention at a dose level of 10 mg/kg. Blood samples were obtained at various times after dosing. Plasma samples were analysed for unchanged test item using a suitable LC-MS/MS method. Pharmacokinetic parameters were estimated from individual plasma concentrations.
Eighteen male rats each received either a single intravenous or a single oral administration of either compound 1, 2 or 3 at a dose level of 10 mg/kg. The formulation was orally administered to each animal by gastric gavage and intravenously administered to each animal via a tail vein. The dose was administered at a dose volume of 5 mL/kg. The formulations were administered to each animal according to the details in the following table:
Blood samples (ca 0.3 mL) were removed from the femoral vein of each animal into tubes containing lithium heparin as anticoagulant.
Blood samples were collected from 3 rats at the following times after dose administration: • 3, 6, 15, 45 min and 1.5, 2.5, 4, 6, 8, 24 h post dose. Oral Administration
Blood samples were collected from 3 rats at the following times after dose administration: • 5, 15, 45 min and 1.5, 2.5, 4, 6, 8, 24 h post dose. Processing of Blood Samples
Pharmacokinetic parameters of compound 1, 2 and 3 were derived by non-compartmental analysis using WinNonLin Pro version 5.0.1 (Pharsight 2005). The following parameters were derived, where appropriate, from the individual plasma concentration versus time profiles:
• F % The absolute oral bioavailability calculated as [AUC0-t (oral)*Dose(iv)/AUC0-t (iv)*Dose (oral)]*100 based on mean values derived after oral and intravenous administration Consideration was given to the estimation of λz and corresponding t1/2 values. Three or more points are required within the terminal phase for λz and t1/2 to be estimated. The following additional variables were tabulated to aid identification of potentially unreliable estimates of t1/2 and AUC:
Pharmacokinetic parameters were reported as geometric mean except Tmax which was reported as the median. Geometric coefficient of variation was calculated as: […]
Actual sampling times were used for all calculations of pharmacokinetic parameters. Plasma concentrations that were below the limit of quantification were taken as zero for the pharmacokinetic analysis.

[1] = intravenous 10 mg/kg, male rats, individual animals, acetate, 10 mg/kg
[2] = male, Sprague Dawley, rat, plasma, iv, 10 mg/kg, male rats, individual animals, read-out: Sample Concentration in plasma
[3] = male, Sprague Dawley, rat, plasma, iv, 10 mg/kg, male rats, mean of 3, read-out: Mean Concentration in plasma
[4] = male, Sprague Dawley, rat, plasma, iv, 10 mg/kg, male rats, individual animals, LLOQ 2.50, read-out: Sample Concentration in plasma
[5] = male, Sprague Dawley, rat, plasma, iv, 10 mg/kg, male rats, mean, read-out: Mean Concentration in plasma

Question: Which results are given for `N=C(N)NN=CC=Cc1cccn1-c1ccccc1Br` [Compound 3, [1-(2-bromophenyl)-1H-pyrrol-2-yl-allylideneamino]guanidinium acetate]?
Answer: bioavailability (Sprague Dawley, rat, plasma, 10 mg/kg oral vs intravenous, male rats, from mean AUC0-t, read-out: Mean absolute oral bioavailability): 20.6%; t1/2 (intravenous 10 mg/kg, male rats, Arithmetic Mean): 3.15 h; t1/2 (intravenous 10 mg/kg, male rats, Geometric mean): 3.14 h; t1/2 (intravenous 10 mg/kg, male rats, Median): 3.26 h; t1/2 [1]: 3.26 h and 3.46 h and 2.74 h; Between-animal variability in systemic exposure, coefficient of variation (CV) of AUC0-t (intravenous 10 mg/kg, male rats): less than 30%; AUC0-∞ [1]: 1911 ng·h/mL and 2504 ng·h/mL; AUC(0-t) [1]: 1896 ng·h/mL and 2258 ng·h/mL; C0 [1]: 9463 ng/mL and 4924 ng/mL; CL [1]: 90.3 mL/min/kg and 68.25 mL/min/kg; MRT [1]: 2.53 h; Vss [1]: 13.694 L/kg and 13.225 L/kg; Systemic clearance (in words) (intravenous 10 mg/kg, rats): high; volume of distribution compared with total body water (in words) (intravenous 10 mg/kg, rats, total body water 668 mL/kg, acetate, 10 mg/kg): exceeded the total body water; also recorded: markedly greater than that of the total body water; systemic plasma clearance (CL) compared with hepatic blood flow (in words) (intravenous 10 mg/kg, hepatic blood flow 3312 mL/h/kg): greater than hepatic blood flow; AUC(0-inf) (male, Sprague Dawley, rat, plasma, iv, 10 mg/kg, intravenous 10 mg/kg, male rats, Arithmetic Mean): 2500 ng·h/mL; AUC(0-t) (male, Sprague Dawley, rat, plasma, iv, 10 mg/kg, intravenous 10 mg/kg, male rats, Arithmetic Mean, read-out: AUC0-t): 2410 ng·h/mL; C0 (male, Sprague Dawley, rat, plasma, iv, 10 mg/kg, intravenous 10 mg/kg, male rats, Arithmetic Mean, read-out: C0): 6630 ng/mL; clearance (male, Sprague Dawley, rat, plasma, iv, 10 mg/kg, intravenous 10 mg/kg, male rats, Arithmetic Mean, read-out: CL (converted)): 71.3 mL/min/kg; MRT (male, Sprague Dawley, rat, plasma, iv, 10 mg/kg, intravenous 10 mg/kg, male rats, Arithmetic Mean, read-out: MRT): 3.24 h; Vd (male, Sprague Dawley, rat, plasma, iv, 10 mg/kg, intravenous 10 mg/kg, male rats, Arithmetic Mean, read-out: Vss): 13.4 L/kg; AUC(0-inf) (male, Sprague Dawley, rat, plasma, iv, 10 mg/kg, intravenous 10 mg/kg, male rats, Geometric mean): 2460 ng·h/mL; AUC(0-t) (male, Sprague Dawley, rat, plasma, iv, 10 mg/kg, intravenous 10 mg/kg, male rats, Geometric mean, read-out: AUC0-t): 2360 ng·h/mL; C0 (male, Sprague Dawley, rat, plasma, iv, 10 mg/kg, intravenous 10 mg/kg, male rats, Geometric mean, read-out: C0): 6360 ng/mL; clearance (male, Sprague Dawley, rat, plasma, iv, 10 mg/kg, intravenous 10 mg/kg, male rats, Geometric mean, read-out: CL (systemic plasma clearance) (converted)): 69.9 mL/min/kg; MRT (male, Sprague Dawley, rat, plasma, iv, 10 mg/kg, intravenous 10 mg/kg, male rats, Geometric mean, read-out: MRT): 3.19 h; Vd (male, Sprague Dawley, rat, plasma, iv, 10 mg/kg, intravenous 10 mg/kg, male rats, Geometric mean, read-out: Vss (mean apparent volume of distribution)): 13.4 L/kg; half-life (male, Sprague Dawley, rat, plasma, iv, 10 mg/kg, intravenous 10 mg/kg, male rats, Geometric mean, read-out: t1/2 (mean apparent terminal half-life) (converted)): 3.14 h; AUC(0-inf) (male, Sprague Dawley, rat, plasma, iv, 10 mg/kg, intravenous 10 mg/kg, male rats, Median): 2500 ng·h/mL; AUC(0-t) (male, Sprague Dawley, rat, plasma, iv, 10 mg/kg, intravenous 10 mg/kg, male rats, Median, read-out: AUC0-t): 2260 ng·h/mL; C0 (male, Sprague Dawley, rat, plasma, iv, 10 mg/kg, intravenous 10 mg/kg, male rats, Median, read-out: C0): 5520 ng/mL; clearance (male, Sprague Dawley, rat, plasma, iv, 10 mg/kg, intravenous 10 mg/kg, male rats, Median, read-out: CL (converted)): 68.2 mL/min/kg; MRT (male, Sprague Dawley, rat, plasma, iv, 10 mg/kg, intravenous 10 mg/kg, male rats, Median, read-out: MRT): 3.23 h; Vd (male, Sprague Dawley, rat, plasma, iv, 10 mg/kg, intravenous 10 mg/kg, male rats, Median, read-out: Vss): 13.2 L/kg; AUC(0-inf) (male, Sprague Dawley, rat, plasma, iv, 10 mg/kg, intravenous 10 mg/kg, male rats, individual animals): 3090 ng·h/mL; AUC(0-t) (male, Sprague Dawley, rat, plasma, iv, 10 mg/kg, intravenous 10 mg/kg, male rats, individual animals, read-out: AUC0-t): 3080 ng·h/mL; C0 (male, Sprague Dawley, rat, plasma, iv, 10 mg/kg, intravenous 10 mg/kg, male rats, individual animals, read-out: C0): 5520 ng/mL; clearance (male, Sprague Dawley, rat, plasma, iv, 10 mg/kg, intravenous 10 mg/kg, male rats, individual animals, read-out: CL (converted)): 55.4 mL/min/kg; MRT (male, Sprague Dawley, rat, plasma, iv, 10 mg/kg, intravenous 10 mg/kg, male rats, individual animals, read-out: MRT): 3.96 h; Vd (male, Sprague Dawley, rat, plasma, iv, 10 mg/kg, intravenous 10 mg/kg, male rats, individual animals, read-out: Vss): 13.2 L/kg; concentration at 0.05 h (male, Sprague Dawley, rat, plasma, iv, 10 mg/kg, male rats, 0.05 h (3 min), mean of 3, read-out: Mean Concentration in plasma): 3170 ng/mL; concentration at 0.05 h (male, Sprague Dawley, rat, plasma, iv, 10 mg/kg, male rats, 0.05 h, individual animals, read-out: Sample Concentration in plasma): 2530 ng/mL; concentration at 0.1 h [2]: 978 ng/mL; concentration at 0.1 h [3]: 1100 ng/mL; concentration at 0.25 h [2]: 481 ng/mL; concentration at 0.25 h [3]: 780 ng/mL; concentration at 0.75 h [2]: 404 ng/mL; concentration at 0.75 h [3]: 465 ng/mL; concentration at 1.5 h [2]: 274 ng/mL; concentration at 1.5 h [3]: 335 ng/mL; concentration at 2.5 h [2]: 240 ng/mL; concentration at 2.5 h [3]: 251 ng/mL; concentration at 4 h [2]: 179 ng/mL; concentration at 4 h [3]: 192 ng/mL; concentration at 6 h [2]: 103 ng/mL; concentration at 6 h [3]: 119 ng/mL; concentration at 8 h [4]: 62.3 ng/mL; concentration at 8 h [5]: 81.2 ng/mL; concentration at 24 h [4]: 3.08 ng/mL; concentration at 24 h [5]: 2.82 ng/mL; AUC(0-inf) (male, Sprague Dawley, rat, plasma, po, 10 mg/kg, oral 10 mg/kg, male rats, Arithmetic Mean): 838 ng·h/mL; AUC(0-t) (male, Sprague Dawley, rat, plasma, po, 10 mg/kg, oral 10 mg/kg, male rats, Arithmetic Mean, read-out: AUC0-t): 518 ng·h/mL; Cmax (male, Sprague Dawley, rat, plasma, po, 10 mg/kg, oral 10 mg/kg, male rats, Arithmetic Mean, read-out: Cmax): 110 ng/mL; MRT (male, Sprague Dawley, rat, plasma, po, 10 mg/kg, oral 10 mg/kg, male rats, Arithmetic Mean, read-out: MRT): 6.83 h; half-life (male, Sprague Dawley, rat, plasma, po, 10 mg/kg, oral 10 mg/kg, male rats, Arithmetic Mean, read-out: t1/2 (converted)): 3.3 h; Tmax (male, Sprague Dawley, rat, plasma, po, 10 mg/kg, oral 10 mg/kg, male rats, Arithmetic Mean, read-out: tmax): 4.67 h
